Measurements from patent US8283353B2, “Fused ring compound and use thereof” (Takeda Pharmaceutical Company Limited, priority 2009, dated 2012).

Legend:
[1] = molecular target: T1, human AT1 receptor (Homo sapiens, UniProt P30556); experiment: AT1 receptor antagonistic activity: [125I]-angiotensin II binding assay on human AT1 receptor-expressing CHO-K1 cellular membrane fraction; conditions: 22.5 pM [125I]-angiotensin II, 1 hr room temperature
T1 construct: expressed in transfected cells; membrane fraction
T1 sequence (P30556 1-359): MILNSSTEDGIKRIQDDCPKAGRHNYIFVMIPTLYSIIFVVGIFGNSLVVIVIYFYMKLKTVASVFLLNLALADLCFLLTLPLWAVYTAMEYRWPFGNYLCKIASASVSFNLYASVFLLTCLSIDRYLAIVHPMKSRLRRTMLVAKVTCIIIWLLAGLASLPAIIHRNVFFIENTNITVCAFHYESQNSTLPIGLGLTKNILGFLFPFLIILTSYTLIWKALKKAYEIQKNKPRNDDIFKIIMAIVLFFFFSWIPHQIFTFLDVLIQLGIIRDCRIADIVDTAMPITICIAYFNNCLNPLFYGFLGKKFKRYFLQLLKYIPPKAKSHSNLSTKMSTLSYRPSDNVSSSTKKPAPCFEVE
In short: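 Competition binding used radiolabelled angiotensin II on stably transfected CHO-K1 membrane fractions in Tris pH 7.4/MgCl2 buffer, optionally containing 0.3 mg/mL fatty acid-free BSA, 1 hr at room temperature. Filtration onto GF/C separated bound tracer, and nonspecific binding was measured with candesartan.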

[2] = molecular target: T2, human PPARγ (Homo sapiens, UniProt P37231); experiment: PPARγ agonistic activity: luciferase reporter assay in PPARγ:RXRα:4ERPP/CHO-K1 cells; type: cell-based; conditions: CHO-K1, test compound 10^−6 M; luciferase activity of control compound X (1 μM) = 100%, non-administration group = 0%
T2 construct: expressed in transfected cells
T2 sequence (P37231 1-477 isoform P37231-2): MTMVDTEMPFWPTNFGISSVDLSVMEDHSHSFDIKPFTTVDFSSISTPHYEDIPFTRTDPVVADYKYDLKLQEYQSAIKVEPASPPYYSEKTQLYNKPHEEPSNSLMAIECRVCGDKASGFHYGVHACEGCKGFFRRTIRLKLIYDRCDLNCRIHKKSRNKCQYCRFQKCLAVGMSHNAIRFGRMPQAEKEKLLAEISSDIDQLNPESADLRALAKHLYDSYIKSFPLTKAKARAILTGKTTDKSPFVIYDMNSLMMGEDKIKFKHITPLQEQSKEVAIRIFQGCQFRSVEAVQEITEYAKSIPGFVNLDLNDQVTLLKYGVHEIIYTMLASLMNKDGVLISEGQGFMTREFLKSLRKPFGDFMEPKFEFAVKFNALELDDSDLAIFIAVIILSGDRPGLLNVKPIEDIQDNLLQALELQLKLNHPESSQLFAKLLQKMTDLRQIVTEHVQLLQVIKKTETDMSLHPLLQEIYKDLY
T2 sequence (P19793 1-462 partner): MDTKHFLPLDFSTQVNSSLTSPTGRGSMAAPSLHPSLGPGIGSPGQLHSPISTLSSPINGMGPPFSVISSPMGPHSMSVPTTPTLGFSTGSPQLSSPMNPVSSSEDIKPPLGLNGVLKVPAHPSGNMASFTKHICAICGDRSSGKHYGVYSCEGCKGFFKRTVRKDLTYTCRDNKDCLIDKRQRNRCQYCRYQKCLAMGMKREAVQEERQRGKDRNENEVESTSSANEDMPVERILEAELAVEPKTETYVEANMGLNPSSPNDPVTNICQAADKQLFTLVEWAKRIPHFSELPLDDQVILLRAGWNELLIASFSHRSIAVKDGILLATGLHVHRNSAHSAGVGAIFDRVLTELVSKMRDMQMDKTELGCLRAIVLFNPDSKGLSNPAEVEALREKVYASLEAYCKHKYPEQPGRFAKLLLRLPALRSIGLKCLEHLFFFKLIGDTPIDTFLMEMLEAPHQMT
In short: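 CHO-K1 cells stably carrying hPPARγ/RXRα and a 4ERPP luciferase reporter, dosed with test compound for 1 day at 37 °C in Ham's F12 with 0.1% fatty acid-free BSA. Luciferase read by luminescence; activity given as % of 1 μM control compound X (100%) versus untreated (0%).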

Row | IC50 [1] [nM] | activation at 1 µM [2] [%] | SMILES
1 | 3.5 | 31 | CCCc1c(Cc2ccc(-c3ccccc3-c3noc(=O)[nH]3)cc2)c(=O)n(C2CCC3(CC2)OC(C)(C)C(C)(C)O3)c2ncnn12 [Example 180, 6-{[2′-(5-oxo-4,5-dihydro-1,2,4-oxadiazol-3-yl)biphenyl-4-yl]methyl}-7-propyl-4-(2,2,3,3-tetramethyl-1,4-dioxaspiro[4.5]dec-8-yl)[1,2,4]triazolo[1,5-a]pyrimidin-5(4H)-one]
2 | 3.2 | 18 | CCCc1c(Cc2ccc(-c3ccccc3-c3nnn[nH]3)cc2)c(=O)n(C2CCC3(CC2)OC(C)(C)C(C)(C)O3)c2ncnn12 [Example 181, 7-propyl-4-(2,2,3,3-tetramethyl-1,4-dioxaspiro[4.5]dec-8-yl)-6-{[2′-(1H-tetrazol-5-yl)biphenyl-4-yl]methyl}[1,2,4]triazolo[1,5-a]pyrimidin-5(4H)-one]
3 | 2.5 | 30 | CCCc1c(Cc2ccc(-c3ccccc3-c3noc(=O)[nH]3)cc2)c(=O)n([C@H]2CC[C@](C)(OCCO)CC2)c2ncnn12 [Example 183, 4-[trans-4-(2-hydroxyethoxy)-4-methylcyclohexyl]-6-{[2′-(5-oxo-4,5-dihydro-1,2,4-oxadiazol-3-yl)biphenyl-4-yl]methyl}-7-propyl[1,2,4]triazolo[1,5-a]pyrimidin-5(4H)-one]
4 | 2.5 | 41 | CCCc1c(Cc2ccc(-c3ccccc3-c3noc(=O)[nH]3)cc2)c(=O)n([C@H]2CC[C@H](c3cnco3)CC2)c2ncnn12 [Example 184, 4-[trans-4-(1,3-oxazol-5-yl)cyclohexyl]-6-{[2′-(5-oxo-4,5-dihydro-1,2,4-oxadiazol-3-yl)biphenyl-4-yl]methyl}-7-propyl[1,2,4]triazolo[1,5-a]pyrimidin-5(4H)-one]
5 | 2.3 | 22 | CCCc1c(Cc2ccc(-c3ccccc3-c3nnn[nH]3)cc2)c(=O)n([C@H]2CC[C@H](c3cnco3)CC2)c2ncnn12 [Example 185, 4-[trans-4-(1,3-oxazol-5-yl)cyclohexyl]-7-propyl-6-{[2′-(1H-tetrazol-5-yl)biphenyl-4-yl]methyl}[1,2,4]triazolo[1,5-a]pyrimidin-5(4H)-one]
6 | 2.1 | 24 | CCCc1c(Cc2ccc(-c3ccccc3-c3noc(=O)[nH]3)cc2)c(=O)n([C@H]2CC[C@H](OCCCO)CC2)c2ncnn12 [Example 186, 4-[trans-4-(3-hydroxypropoxy)cyclohexyl]-6-{[2′-(5-oxo-4,5-dihydro-1,2,4-oxadiazol-3-yl)biphenyl-4-yl]methyl}-7-propyl[1,2,4]triazolo[1,5-a]pyrimidin-5(4H)-one]
7 | 1.9 | 25 | CCCc1c(Cc2ccc(-c3ccccc3-c3noc(=O)[nH]3)cc2)c(=O)n(C2CCC(=NOC)CC2)c2ncnn12 (stereo not shown) [Example 188, 4-[4-(methoxyimino)cyclohexyl]-6-{[2′-(5-oxo-4,5-dihydro-1,2,4-oxadiazol-3-yl)biphenyl-4-yl]methyl}-7-propyl[1,2,4]triazolo[1,5-a]pyrimidin-5(4H)-one]
8 | 3.1 | 35 | CCCc1c(Cc2ccc(-c3ccccc3-c3noc(=O)[nH]3)cc2)c(=O)n([C@H]2CC[C@](C)(CO)CC2)c2ncnn12 [Example 189, 4-[trans-4-(hydroxymethyl)-4-methylcyclohexyl]-6-{[2′-(5-oxo-4,5-dihydro-1,2,4-oxadiazol-3-yl)biphenyl-4-yl]methyl}-7-propyl[1,2,4]triazolo[1,5-a]pyrimidin-5(4H)-one]
9 | 1.6 | 34 | CCCc1c(Cc2ccc(-c3ccccc3-c3noc(=O)[nH]3)cc2)c(=O)n(C2CCC(=CCO)CC2)c2ncnn12 (stereo not shown) [Example 191, 4-[4-(2-hydroxyethylidene)cyclohexyl]-6-{[2′-(5-oxo-4,5-dihydro-1,2,4-oxadiazol-3-yl)biphenyl-4-yl]methyl}-7-propyl[1,2,4]triazolo[1,5-a]pyrimidin-5(4H)-one]
10 | 2 | 28 | CCCc1c(Cc2ccc(-c3ccccc3-c3noc(=O)[nH]3)cc2)c(=O)n(C2CCC(=NOC(C)C)CC2)c2ncnn12 (stereo not shown) [Example 193, 4-{4-[(1-methylethoxy)imino]cyclohexyl}-6-{[2′-(5-oxo-4,5-dihydro-1,2,4-oxadiazol-3-yl)biphenyl-4-yl]methyl}-7-propyl[1,2,4]triazolo[1,5-a]pyrimidin-5(4H)-one]
11 | 2.5 | 19 | CCCc1c(Cc2ccc(-c3ccccc3-c3noc(=O)[nH]3)cc2)c(=O)n(C2CCC(=NOC3CCOCC3)CC2)c2ncnn12 (stereo not shown) [Example 195, 6-{[2′-(5-oxo-4,5-dihydro-1,2,4-oxadiazol-3-yl)biphenyl-4-yl]methyl}-7-propyl-4-{4-[(tetrahydro-2H-pyran-4-yloxy)imino]cyclohexyl}[1,2,4]triazolo[1,5-a]pyrimidin-5(4H)-one]
12 | 2.7 | 26 | CCCc1c(Cc2ccc(-c3ccccc3-c3noc(=O)[nH]3)cc2)c(=O)n([C@H]2CC[C@]3(CC2)CC(C)=NO3)c2ncnn12 [Example 204, 4-[(5R,8R)-3-methyl-1-oxa-2-azaspiro[4.5]dec-2-en-8-yl]-6-{[2′-(5-oxo-4,5-dihydro-1,2,4-oxadiazol-3-yl)biphenyl-4-yl]methyl}-7-propyl[1,2,4]triazolo[1,5-a]pyrimidin-5(4H)-one]
13 | 2.7 | 27 | CCCc1c(Cc2ccc(-c3ccccc3-c3noc(=O)[nH]3)cc2)c(=O)n([C@H]2CC[C@@]3(CC2)CC(C)=NO3)c2ncnn12 [Example 205, 4-[(5S,8S)-3-methyl-1-oxa-2-azaspiro[4.5]dec-2-en-8-yl]-6-{[2′-(5-oxo-4,5-dihydro-1,2,4-oxadiazol-3-yl)biphenyl-4-yl]methyl}-7-propyl[1,2,4]triazolo[1,5-a]pyrimidin-5(4H)-one]
14 | 2.2 | 23 | CCCCc1c(Cc2ccc(-c3ccccc3-c3noc(=O)[nH]3)cc2)c(=O)n([C@H]2CC[C@H](OC(C)C(C)(C)O)CC2)c2ncnn12 (stereo partly drawn) [Example 206, 7-butyl-4-[trans-4-(2-hydroxy-1,2-dimethylpropoxy)cyclohexyl]-6-{[2′-(5-oxo-4,5-dihydro-1,2,4-oxadiazol-3-yl)biphenyl-4-yl]methyl}[1,2,4]triazolo[1,5-a]pyrimidin-5(4H)-one]
15 | 1.9 | 33 | CCCc1c(Cc2ccc(-c3ccccc3-c3noc(=O)[nH]3)cc2)c(=O)n([C@H]2CC[C@H](OCC#N)CC2)c2ncnn12 [Example 210, ({trans-4-[5-oxo-6-{[2′-(5-oxo-4,5-dihydro-1,2,4-oxadiazol-3-yl)biphenyl-4-yl]methyl}-7-propyl[1,2,4]triazolo[1,5-a]pyrimidin-4(5H)-yl]cyclohexyl}oxy)acetonitrile]
16 | 1.9 | 24 | CCCc1c(Cc2ccc(-c3ccccc3-c3noc(=O)[nH]3)cc2)c(=O)n([C@H]2CC[C@H](OCC(C)=O)CC2)c2ncnn12 [Example 215, 6-{[2′-(5-oxo-4,5-dihydro-1,2,4-oxadiazol-3-yl)biphenyl-4-yl]methyl}-4-[trans-4-(2-oxopropoxy)cyclohexyl]-7-propyl[1,2,4]triazolo[1,5-a]pyrimidin-5(4H)-one]

Row | SMILES | IC50 [1] [nM] | activation at 1 µM [2] [%]
17 | CCCc1c(Cc2ccc(-c3ccccc3-c3noc(=O)[nH]3)cc2)c(=O)n([C@H]2CC[C@H](OCC(O)(CC)CC)CC2)c2nc(C)nn12 [Example 197, 4-[trans-4-(2-ethyl-2-hydroxybutoxy)cyclohexyl]-2-methyl-6-{[2′-(5-oxo-4,5-dihydro-1,2,4-oxadiazol-3-yl)biphenyl-4-yl]methyl}-7-propyl[1,2,4]triazolo[1,5-a]pyrimidin-5(4H)-one] | 2 | 17
